≈ marks a conversion by molar mass, not a printed value.
Experiments:
[1] = system: Streptococcus pneumoniae; assay: Antibacterial activity against Streptococcus pneumoniae at 250 ug/tube after 24 hrs by cylinder-plate method; assay type: functional
[2] = system: Escherichia coli; assay: Antibacterial activity against Escherichia coli by serial dilution method
[3] = system: Bacillus subtilis; assay: Antibacterial activity against Bacillus subtilis at 250 ug/tube after 24 hrs by cylinder-plate method; assay type: functional
[4] = system: Bacillus subtilis; assay: Antibacterial activity against Bacillus subtilis by serial dilution method; assay type: functional
[5] = system: Staphylococcus aureus; assay: Antibacterial activity against Staphylococcus aureus by serial dilution method; assay type: functional
[6] = system: Staphylococcus aureus; assay: Antibacterial activity against Staphylococcus aureus at 250 ug/tube after 24 hrs by cylinder-plate method; assay type: functional
[7] = system: Streptococcus pneumoniae; assay: Antibacterial activity against Streptococcus pneumoniae by serial dilution method; assay type: functional
[8] = system: Pseudomonas aeruginosa; assay: Antibacterial activity against Pseudomonas aeruginosa by serial dilution method; assay type: functional
[9] = system: Escherichia coli; assay: Antibacterial activity against Escherichia coli at 250 ug/tube after 24 hrs by cylinder-plate method; assay type: functional
[10] = system: Pseudomonas aeruginosa; assay: Antibacterial activity against Pseudomonas aeruginosa at 250 ug/tube after 24 hrs by cylinder-plate method; assay type: functional
[11] = system: Staphylococcus aureus; assay: Antibacterial activity against Staphylococcus aureus at 100 ug/tube after 24 hrs by cylinder-plate method; assay type: functional
[12] = system: Bacillus subtilis; assay: Antibacterial activity against Bacillus subtilis at 100 ug/tube after 24 hrs by cylinder-plate method; assay type: functional
[13] = system: Pseudomonas aeruginosa; assay: Antibacterial activity against Pseudomonas aeruginosa at 100 ug/tube after 24 hrs by cylinder-plate method; assay type: functional
[14] = system: Escherichia coli; assay: Antibacterial activity against Escherichia coli at 100 ug/tube after 24 hrs by cylinder-plate method; assay type: functional
[15] = system: Streptococcus pneumoniae; assay: Antibacterial activity against Streptococcus pneumoniae at 100 ug/tube after 24 hrs by cylinder-plate method; assay type: functional

Compound | diameter of the inhibition zone (DIZ) [1] [mm] | MIC [2] [µg/mL] | diameter of the inhibition zone (DIZ) [3] [mm] | MIC [4] [µg/mL] | MIC [5] [µg/mL] | diameter of the inhibition zone (DIZ) [6] [mm] | MIC [7] [µg/mL] | MIC [8] [µg/mL] | diameter of the inhibition zone (DIZ) [9] [mm] | diameter of the inhibition zone (DIZ) [10] [mm] | diameter of the inhibition zone (DIZ) [11] [mm] | diameter of the inhibition zone (DIZ) [12] [mm] | diameter of the inhibition zone (DIZ) [13] [mm] | diameter of the inhibition zone (DIZ) [14] [mm] | diameter of the inhibition zone (DIZ) [15] [mm] | inhibition zone (IZ) [12] [mm] | inhibition zone (IZ) [15] [mm]
Clc1ccc(-c2nn3c(-c4cccc(-c5nnc6sc(-c7ccc(Cl)cc7)nn56)n4)nnc3s2)cc1 | 16 | 32 (≈ 58.3 µM) | 14 | 64 (≈ 117 µM) | 32 (≈ 58.3 µM) | 15 | 32 (≈ 58.3 µM) | 32 (≈ 58.3 µM) | 17 | 15 | – | – | – | – | – | – | –
O=[N+]([O-])c1cccc(-c2nn3c(-c4cccc(-c5nnc6sc(-c7cccc([N+](=O)[O-])c7)nn56)n4)nnc3s2)c1 | 14 | 64 (≈ 112 µM) | 11 | 128 (≈ 225 µM) | 128 (≈ 225 µM) | 13 | 64 (≈ 112 µM) | 128 (≈ 225 µM) | 14 | 12 | – | – | – | – | – | – | –
c1cc(-c2nnc3sc(-c4ccncc4)nn23)nc(-c2nnc3sc(-c4ccncc4)nn23)c1 | 13 | 64 (≈ 133 µM) | 10 | > 128 | 128 (≈ 266 µM) | 12 | 128 (≈ 266 µM) | 128 (≈ 266 µM) | 14 | 13 | – | – | – | – | – | – | –
c1cc(-c2nnc3sc(-c4ccco4)nn23)nc(-c2nnc3sc(-c4ccco4)nn23)c1 | 12 | 64 (≈ 139 µM) | 12 | 128 (≈ 279 µM) | 64 (≈ 139 µM) | 14 | 128 (≈ 279 µM) | 32 (≈ 69.6 µM) | 15 | 15 | – | – | – | – | – | – | –
CC1(C)S[C@@H]2[C@H](NC(=O)[C@H](N)c3ccccc3)C(=O)N2[C@H]1C(=O)[O-].[Na+] [AMPICILLIN SODIUM] | – | – | – | 0.5 | 1 | – | 2 | 2 | – | – | 23 | 21 | 17 | 17 | 18 | – | –
Ic1cccc(-c2nn3c(-c4cccc(-c5nnc6sc(-c7cccc(I)c7)nn56)n4)nnc3s2)c1 | 14 | 32 (≈ 43.8 µM) | 14 | 64 (≈ 87.5 µM) | 32 (≈ 43.8 µM) | 16 | 64 (≈ 87.5 µM) | 64 (≈ 87.5 µM) | 18 | 15 | – | – | – | – | – | – | –
Clc1cccc(-c2nn3c(-c4cccc(-c5nnc6sc(-c7cccc(Cl)c7)nn56)n4)nnc3s2)c1 | 16 | 64 (≈ 117 µM) | 13 | 64 (≈ 117 µM) | 64 (≈ 117 µM) | 14 | 32 (≈ 58.3 µM) | 64 (≈ 117 µM) | 15 | 14 | – | – | – | – | – | – | –
c1cncc(-c2nn3c(-c4cccc(-c5nnc6sc(-c7cccnc7)nn56)n4)nnc3s2)c1 | 13 | 64 (≈ 133 µM) | 11 | 128 (≈ 266 µM) | 128 (≈ 266 µM) | 12 | 128 (≈ 266 µM) | 128 (≈ 266 µM) | 14 | 13 | – | – | – | – | – | – | –
Cc1nn2c(-c3cccc(-c4nnc5sc(C)nn45)n3)nnc2s1 | 12 | 64 (≈ 180 µM) | 10 | > 128 | 128 (≈ 360 µM) | 12 | 128 (≈ 360 µM) | 128 (≈ 360 µM) | 14 | 12 | – | – | – | – | – | – | –
Cc1ccc(-c2nn3c(-c4cccc(-c5nnc6sc(-c7ccc(C)cc7)nn56)n4)nnc3s2)cc1 | 13 | 64 (≈ 126 µM) | 10 | > 128 | 128 (≈ 252 µM) | 13 | 128 (≈ 252 µM) | > 128 | 14 | 10 | – | – | – | – | – | – | –
c1ccc(-c2nn3c(-c4cccc(-c5nnc6sc(-c7ccccc7)nn56)n4)nnc3s2)cc1 | 12 | 128 (≈ 267 µM) | 10 | > 128 | 128 (≈ 267 µM) | 12 | 128 (≈ 267 µM) | > 128 | 12 | 10 | – | – | – | – | – | – | –
O=[N+]([O-])c1ccc(-c2nn3c(-c4cccc(-c5nnc6sc(-c7ccc([N+](=O)[O-])cc7)nn56)n4)nnc3s2)cc1 | 15 | 64 (≈ 112 µM) | 11 | 128 (≈ 225 µM) | 128 (≈ 225 µM) | 13 | 64 (≈ 112 µM) | 128 (≈ 225 µM) | 15 | 12 | – | – | – | – | – | – | –
GENTAMICIN | – | – | – | 2 | 2 | – | 2 | 1 | – | – | – | – | – | – | – | 22 | 21
COc1ccc(-c2nn3c(-c4cccc(-c5nnc6sc(-c7ccc(OC)cc7)nn56)n4)nnc3s2)cc1 | 14 | 32 (≈ 59.3 µM) | 14 | 64 (≈ 119 µM) | 64 (≈ 119 µM) | 14 | 64 (≈ 119 µM) | 128 (≈ 237 µM) | 16 | 12 | – | – | – | – | – | – | –

From ChEMBL document CHEMBL2429777, “Synthesis and antibacterial activity evaluation of 2,6-bis(6-substituted-1,2,4-triazolo[3,4-b][1,3,4]thiadiazol-3-yl)pyridine derivatives” (2013)
